Here are results for 22 compounds from patent US20050209256A1, “Novel beta-turn mimetics as calcitonin gene related peptide receptor antagonists” (priority 2004, published 2005).

The target of the experiment is T1, human CGRP receptor (Homo sapiens, UniProt O60894+Q16602).
T1 construct: SK-N-MC cells that endogenously express the human CGRP receptor; endogenous in cells; host or cells: SK-N-MC cells (membrane homogenates)
In words: Radioligand binding assay, [125I]-CGRP competition on SK-N-MC cell homogenates. Particulars: Binding data, [125I]-CGRP 40 pM, room temperature. Here is the method: Tissue culture. SK-N-MC cells were grown at 37° C. in 5% CO2 as a monolayer in medium consisting of MEM with Earle's salts and L-glutamine (Gibco) supplemented with 10% fetal bovine serum (Gibco).
Radioligand binding assays. Cells were rinsed twice with phosphate-buffered saline (155 mM NaCl, 3.3 mM Na2HPO4, 1.1 mM KH2PO4, pH 7.4), and incubated for 5-10 min. at 4° C. in hypotonic lysis buffer consisting of 10 mM Tris (pH 7.4) and 5 mM EDTA. Cells were transferred from plates to polypropylene tubes (16×100 mm), homogenized and centrifuged at 32,000×g for 30 min. Pellets were resuspended in buffer consisting of 50 mM Tris (pH 7.4) and 1 mM EDTA, homogenized, and centrifuged again at 32,000×g for 30 min. Pellets were resuspended in 100 mM Tris-Cl pH 7.5, 10 mM MgCl2, 0.1% mammalian protease inhibitor cocktail (Sigma) and stored at −80° C. until needed. On the day of an experiment, homogenates were thawed and homogenized again. Binding of [^125I]-CGRP (NEN) was carried out in buffer containing 50 mM Tris-Cl pH 7.5, 5 mM MgCl2, 0.5% BSA. Homogenates (3.5 μg protein/well) were incubated with competitor compounds (solubilized in 100% DMSO at 100× their final assay concentrations) for one hour at room temperature. Then [^125I]-CGRP was added (40 pM final concentration) and the reaction incubated for one additional hour at room temperature. Assays were stopped by addition of cold wash buffer (20 mM Tris-Cl pH 7.5, 0.1% BSA) immediately followed by filtration over glass fiber filters (Whatman GF/B) previously soaked in 0.5% PEI. Non-specific binding was defined with 100 nM CGRP.
What is called IC50 is the point on the concentration scale where inhibition reaches its midpoint. The compound `CC(=O)c1ccc(NC(=O)N2CCC(=O)N3[C@@H]2CN(CCc2cccc(F)c2)C(=O)[C@@H]3COCc2ccccc2)cc1` [Compound 32, (6S,9aS)-6-Benzyloxymethyl-8-[2-(3-fluoro-phenyl)-ethyl]-4,7-dioxo-hexahydro-pyrazino[1,2-a]pyrimidine-1-carboxylic acid (4-acetyl-phenyl)-amide] showed an IC50 of 598 nM. As for `CC(=O)c1ccc(NC(=O)N2CCC(=O)N3[C@@H]2CN(CCc2cccc(F)c2)C(=O)[C@@H]3Cc2ccc(OCc3ccccc3)cc2)cc1` [Compound 33, (6S,9aS)-6-(4-Benzyloxy-benzyl)-8-[2-(3-fluoro-phenyl)-ethyl]-4,7-dioxo-hexahydro-pyrazino[1,2-a]pyrimidine-1-carboxylic acid (4-acetyl-phenyl)-amide], the figure is 2260 nM. As for `CC(=O)c1ccc(NC(=O)N2CCC(=O)N3[C@@H]2CN(CCc2cccc(F)c2)C(=O)[C@@H]3Cc2cc(Br)c(O)c(Br)c2)cc1` [Compound 34, (6S,9aS)-6-(3,5-Dibromo-4-hydroxy-benzyl)-8-[2-(3-fluoro-phenyl)-ethyl]-4,7-dioxo-hexahydro-pyrazino[1,2-a]pyrimidine-1-carboxylic acid (4-acetyl-phenyl)-amide], the figure is 1170 nM. Consider `CC(=O)c1ccc(NC(=O)N2CCC(=O)N3[C@@H]2CN(CCc2cccc(F)c2)C(=O)[C@@H]3CCS(C)(=O)=O)cc1` [Compound 36, (6S,9aS)-8-[2-(3-Fluoro-phenyl)-ethyl]-6-(2-methanesulfonyl-ethyl)-4,7-dioxo-hexahydro-pyrazino[1,2-a]pyrimidine-1-carboxylic acid (4-acetyl-phenyl)-amide], for which the IC50 turned out to be 350 nM. The compound `CC[C@@H](C)[C@H]1C(=O)N(CCc2cccc(F)c2)C[C@@H]2N(C(=O)Nc3ccc(C(C)=O)cc3)CCC(=O)N12` [Compound 39, (6S,9aS)-6-(1R-methyl-propyl)-8-[2-(3-fluoro-phenyl)-ethyl]--4,7-dioxo-hexahydro-pyrazino[1,2-a]pyrimidine-1-carboxylic acid (4-acetyl-phenyl)-amide] showed an IC50 of 233 nM. For the compound `CC(=O)c1ccc(NC(=O)N2CCC(=O)N3[C@@H]2CN(CCc2cccc(F)c2)C(=O)[C@@H]3CCC(N)=O)cc1` [Compound 40, (6S,9aS)-6-(2-Carbamoyl-ethyl)-8-[2-(3-fluoro-phenyl)-ethyl]-4,7-dioxo-hexahydro-pyrazino[1,2-a]pyrimidine-1-carboxylic acid (4-acetyl-phenyl)-amide], the IC50 was found to be 2360 nM. `CC(=O)c1ccc(NC(=O)N2CCC(=O)N3[C@@H](C4CCNCC4)C(=O)N(CCc4cccc(F)c4)C[C@H]23)cc1` [Compound 43, (6S,9aS)-8-[2-(3-Fluoro-phenyl)-ethyl]-4,7-dioxo-6-piperidin-4-yl-hexahydro-pyrazino[1,2-a]pyrimidine-1-carboxylic acid (4-acetyl-phenyl)-amide] showed an IC50 of 4000 nM. As for `CC(=O)c1ccc(NC(=O)N2CCC(=O)N3[C@@H](c4ccccc4)C(=O)N(CCc4cccc(F)c4)C[C@H]23)cc1` [Compound 46, (6S,9aS)-8-[2-(3-Fluoro-phenyl)-ethyl]-4,7-dioxo-6-phenyl-hexahydro-pyrazino[1,2-a]pyrimidine-1-carboxylic acid (4-acetyl-phenyl)-amide], the IC50 was 167 nM. As for `CC(=O)c1ccc(NC(=O)N2CCC(=O)N3[C@@H](C4CCCCC4)C(=O)N(CCc4cccc(F)c4)C[C@H]23)cc1` [Compound 48, (6S,9aS)-6-Cyclohexyl-8-[2-(3-fluoro-phenyl)-ethyl]-4,7-dioxo-hexahydro-pyrazino[1,2-a]pyrimidine-1-carboxylic acid (4-acetyl-phenyl)-amide], the IC50 was 115 nM. As for `CC(=O)c1ccc(NC(=O)N2CCC(=O)N3[C@@H](C4CCOCC4)C(=O)N(CCc4cccc(F)c4)C[C@H]23)cc1` [Compound 52, (6S,9aS)-8-[2-(3-Fluoro-phenyl)-ethyl]-4,7-dioxo-6-(tetrahydro-pyran-4-yl)-hexahydro-pyrazino[1,2-a]pyrimidine-1-carboxylic acid (4-acetyl-phenyl)-amide], the figure is 358 nM; as for `CC(=O)c1ccc(NC(=O)N2c3cc4ccccc4cc3C(=O)N3[C@@H](C4CCOCC4)C(=O)N(CCc4cccc(F)c4)C[C@H]23)cc1` [Compound 53, (4S,12S)-2-[2-(3-Fluoro-phenyl)-ethyl]-3,5-dioxo-4-(tetrahydro-pyran-4-yl)-1,3,4,12a-tetrahydro-2H,5H-2,4a,12-triaza-naphthacene-12-carboxylic acid (4-acetyl-phenyl)-amide], 2970 nM; as for `CC(=O)c1ccc(NC(=O)N2CCC(=O)N3[C@@H]2CN(CCc2cccc(F)c2)C(=O)[C@@H]3Cc2cncn2C)cc1` [Compound 54, (6S,9aS)-8-[2-(3-Fluoro-phenyl)-ethyl]-6-(3-methyl-3H-imidazol-4-ylmethyl)-4,7-dioxo-hexahydro-pyrazino[1,2-a]pyrimidine-1-carboxylic acid (4-acetyl-phenyl)-amide], 1270 nM. As for `CC(=O)c1ccc(NC(=O)N2CCC(=O)N3[C@@H]2CN(CCc2cccc(F)c2)C(=O)[C@@H]3Cc2cc(F)cc(F)c2)cc1` [Compound 55, (6S,9aS)-6-(3,5-Difluoro-benzyl)-8-[2-(3-fluoro-phenyl)-ethyl]-4,7-dioxo-hexahydro-pyrazino[1,2-a]pyrimidine-1-carboxylic acid (4-acetyl-phenyl)-amide], the figure is 400 nM; as for `CC(=O)c1ccc(NC(=O)N2CCC(=O)N3[C@@H]2CN(CCc2cccc(F)c2)C(=O)[C@@H]3Cc2cc(F)c(F)c(F)c2)cc1` [Compound 56, (6S,9aS)-8-[2-(3-Fluoro-phenyl)-ethyl]-4,7-dioxo-6-(3,4,5-trifluoro-benzyl)-hexahydro-pyrazino[1,2-a]pyrimidine-1-carboxylic acid (4-acetyl-phenyl)-amide], 665 nM.

The compound `CC(=O)c1ccc(NC(=O)N2CCC(=O)N3[C@@H]2CN(CCc2cccc(F)c2)C(=O)[C@@H]3Cc2c(F)c(F)c(F)c(F)c2F)cc1` [Compound 57, (6S,9aS)-8-[2-(3-Fluoro-phenyl)-ethyl]-4,7-dioxo-6-pentafluorophenylmethyl-hexahydro-pyrazino [1,2a]pyrimidine-1-carboxylic acid (4-acetyl-phenyl)-amide] came in with an IC50 of 500 nM. The IC50 values of the last two compounds are within 1.5-fold of each other. As for `CC(=O)c1ccc(NC(=O)N2CCC(=O)N3[C@@H]2CN(CCc2cccc(F)c2)C(=O)[C@@H]3Cc2ccc(F)cc2)cc1` [Compound 58, (6S,9aS)-6-(4-Fluoro-benzyl)-8-[2-(3-fluoro-phenyl)-ethyl]-4,7-dioxo-hexahydro-pyrazino[1,2-a]pyrimidine-1-carboxylic acid (4-acetyl-phenyl)-amide], the figure is 814 nM. As for `CC(=O)c1ccc(NC(=O)N2CCC(=O)N3[C@@H](c4ccc(F)c(F)c4)C(=O)N(CCc4ccccc4)C[C@H]23)cc1` [Compound 59, (6S,9aS)-6-(3,4-Difluoro-phenyl)-4,7-dioxo-8-phenethyl-hexahydro-pyrazino[1,2-a]pyrimidine-1-carboxylic acid (4-acetyl-phenyl)-amide], the figure is 271 nM. The result for `CC(=O)c1ccc(NC(=O)N2CCC(=O)N3[C@@H]2CN(CCc2cccc(F)c2)C(=O)[C@@H]3Cc2ccc(F)c(F)c2)cc1` [Compound 62, (6S,9aS)-6-(3,4-Difluoro-benzyl)-8-[2-(3-fluoro-phenyl)-ethyl]-4,7-dioxo-hexahydro-pyrazino[1,2-a]pyrimidine-1-carboxylic acid (4-acetyl-phenyl)-amide] reads 624 nM; that for `CC(=O)c1ccc(NC(=O)N2CCC(=O)N3[C@@H]2CN(CCc2ccccc2)C(=O)[C@@H]3Cc2ccc(F)c(F)c2)cc1` [Compound 63, (6S,9aS)-6-(3,4-Difluoro-benzyl)-4,7-dioxo-8-phenethyl-hexahydro-pyrazino[1,2-a]pyrimidine-1-carboxylic acid (4-acetyl-phenyl)-amide], 3040 nM; that for `CC(=O)c1ccc(NC(=O)N2CCC(=O)N3[C@@H](c4ccccc4)C(=O)N(CCc4ccccc4)C[C@H]23)cc1` [Compound 64, (6S,9aS)-4,7-Dioxo-8-phenethyl-6-phenyl-hexahydro-pyrazino[1,2-a]pyrimidine-1-carboxylic acid (4-acetyl-phenyl)-amide], 473 nM.

Take `CC(=O)c1ccc(NC(=O)N2CCC(=O)N3[C@@H]2CN(CCc2ccccc2)C(=O)[C@@H]3CC2CCCCC2)cc1` [Compound 65, (6S,9aS)-6-Cyclohexylmethyl-4,7-dioxo-8-phenethyl-hexahydro-pyrazino[1,2-a]pyrimidine-1-carboxylic acid (4-acetyl-phenyl)-amide]: the IC50 is 517 nM. As for `NC(=O)c1ccc(NC(=O)N2CCC(=O)N3[C@@H]2CN(CCc2ccccc2)C(=O)[C@@H]3CC2CCCCC2)cc1` [Compound 111, (6S,9aS)-6-Cyclohexylmethyl-4,7-dioxo-8-phenethyl-hexahydro-pyrazino[1,2-a]pyrimidine-1-carboxylic acid (4-carbamoyl-phenyl)-amide], the figure is 12000 nM.
